Drawing on patent publication US8148407B2, “Compounds derived from 5-thioxylose and their use in therapeutics” (Laboratories Fournier S.A., priority 2005, dated 2012), this text covers melting point for 29 compounds.

As a reminder, the melting point is the temperature of the solid-liquid transition.

Take `COc1ccc(-c2cncc(O[C@@H]3SC[C@@H](O)[C@H](O)[C@H]3O)c2)cc1OC` [Example 71, 5-(3,4-dimethoxyphenyl)-3-pyridinyl 5-thio-β-D-xylopyranoside]: the melting point is 211 °C.
With `CCN(CC)C(=O)c1cncc(O[C@@H]2SC[C@@H](O)[C@H](O)[C@H]2O)c1` [Example 160, 5-[(N,N-diethylamino)carbonyl]-3-pyridinyl 5-thio-β-D-xylopyranoside] the figure was 143 °C; with `COc1c(F)cc(-c2cncc(O[C@@H]3SC[C@@H](O)[C@H](O)[C@H]3O)c2)cc1F` [Example 146, 5-(3,5-difluoro-4-methoxyphenyl)-3-pyridinyl 5-thio-β-D-xylopyranoside], 203 °C.
The result for `O=S(=O)(c1ccc(F)cc1)c1cncc(O[C@@H]2SC[C@@H](O)[C@H](O)[C@H]2O)c1` [Example 142, 5-[(4-fluorophenyl)sulfonyl]-3-pyridinyl 5-thio-β-D-xylopyranoside] reads 93 to 96 °C; that for `N#Cc1ccc(-c2cncc(O[C@@H]3SC[C@@H](O)[C@H](O)[C@H]3O)c2)cc1F` [Example 91, 5-(4-cyano-3-fluorophenyl)-3-pyridinyl 5-thio-β-D-xylopyranoside], 214 °C; that for `COc1cccc(-c2cncc(O[C@@H]3SC[C@@H](O)[C@H](O)[C@H]3O)c2)c1` [Example 67, 5-(3-methoxyphenyl)-3-pyridinyl 5-thio-β-D-xylopyranoside], 200 °C.
In turn, `COc1cc(F)ccc1-c1cncc(O[C@@H]2SC[C@@H](O)[C@H](O)[C@H]2O)c1` [Example 87, 5-(4-fluoro-2-methoxyphenyl)-3-pyridinyl 5-thio-β-D-xylopyranoside] displayed a melting point of 218 to 228 °C.
With `COc1ccc(-c2cncc(O[C@@H]3SC[C@@H](O)[C@H](O)[C@H]3O)c2)c(C)c1` [Example 105, 5-(4-methoxy-2-methylphenyl)-3-pyridinyl 5-thio-β-D-xylopyranoside] the figure was 231 °C; with `Cc1cc(F)ccc1-c1cc(O[C@@H]2SC[C@@H](O)[C@H](O)[C@H]2O)ccn1` [Example 162, 2-(4-fluoro-2-methylphenyl)-4-pyridinyl 5-thio-β-D-xylopyranoside], 147 °C; with `Cc1ccc(-c2cncc(O[C@@H]3SC[C@@H](O)[C@H](O)[C@H]3O)c2)c(Cl)c1` [Example 111, 5-(2-chloro-4-methylphenyl)-3-pyridinyl 5-thio-β-D-xylopyranoside], 207 °C.
With `Cc1ccc(-c2cncc(O[C@@H]3SC[C@@H](O)[C@H](O)[C@H]3O)c2)cc1C` [Example 109, 5-(3,4-dimethylphenyl)-3-pyridinyl 5-thio-β-D-xylopyranoside] the figure was 184 °C; with `CC(=O)c1cccc(-c2ncccc2O[C@@H]2SC[C@@H](O)[C@H](O)[C@H]2O)c1` [Example 128, 2-(3-acetylphenyl)-3-pyridinyl 5-thio-β-D-xylopyranoside], 128 to 133 °C; with `CC(=O)c1cccc(-c2ccc(O[C@@H]3SC[C@@H](O)[C@H](O)[C@H]3O)cn2)c1` [Example 124, 6-(3-acetylphenyl)-3-pyridinyl 5-thio-β-D-xylopyranoside], 159 to 163 °C.
With `COc1ccc(-c2cncc(O[C@@H]3SC[C@@H](O)[C@H](O)[C@H]3O)c2)cc1Cl` [Example 65, 5-(3-chloro-4-methoxyphenyl)-3-pyridinyl 5-thio-β-D-xylopyranoside] the figure was 165 °C; with `O[C@@H]1[C@@H](O)[C@H](Oc2cccnc2-c2ccccc2)SC[C@H]1O` [Example 24, 2-phenyl-3-pyridinyl 5-thio-β-D-xylopyranoside], 89 to 108 °C; with `Cc1cc(-c2cncc(O[C@@H]3SC[C@@H](O)[C@H](O)[C@H]3O)c2)ccc1C#N` [Example 150, 5-(4-cyano-3-methylphenyl)-3-pyridinyl 5-thio-β-D-xylopyranoside], 198 to 200 °C.
Turning to `COc1ccc(-c2ccc(O[C@@H]3SC[C@@H](O)[C@H](O)[C@H]3O)cn2)cc1` [Example 93, 6-(4-methoxyphenyl)-3-pyridinyl 5-thio-β-D-xylopyranoside], the melting point is 164 °C.
The result for `O[C@@H]1[C@@H](O)[C@H](Oc2cncc(-c3c(F)cc(F)cc3F)c2)SC[C@H]1O` [Example 144, 5-(2,4,6-trifluorophenyl)-3-pyridinyl 5-thio-β-D-xylopyranoside] reads 228 °C; that for `Cc1ccc(-c2cncc(O[C@@H]3SC[C@@H](O)[C@H](O)[C@H]3O)c2)cc1` [Example 52, 5-(4-methylphenyl)-3-pyridinyl 5-thio-β-D-xylopyranoside], 228 °C.
In turn, `OCc1ccc(-c2ccc(O[C@@H]3SC[C@@H](O)[C@H](O)[C@H]3O)cn2)cc1` [Example 95, 6-[4-(hydroxymethyl)phenyl]-3-pyridinyl 5-thio-β-D-xylopyranoside] returned a melting point of 215 °C.
Compound `O[C@@H]1[C@@H](O)[C@H](Oc2cnccc2-c2ccc(F)cc2)SC[C@H]1O` [Example 57, 4-(4-fluorophenyl)-3-pyridinyl 5-thio-β-D-xylopyranoside] came in with a melting point of 219 °C.
With `O[C@@H]1[C@@H](O)[C@H](Oc2cncc(-c3ccc(N4CCCCC4)cc3)c2)SC[C@H]1O` [Example 48, 5-[4-(1-piperidinyl)phenyl]-3-pyridinyl 5-thio-β-D-xylopyranoside] the figure was 196 °C; with `CC(C)Oc1ccc(-c2cncc(O[C@@H]3SC[C@@H](O)[C@H](O)[C@H]3O)c2)cc1` [Example 69, 5-[4-(1-methylethoxy)phenyl]-3-pyridinyl 5-thio-β-D-xylopyranoside], 158 °C.
With `N#Cc1cc(-c2cncc(O[C@@H]3SC[C@@H](O)[C@H](O)[C@H]3O)c2)ccc1F` [Example 63, 5-(3-cyano-4-fluorophenyl)-3-pyridinyl 5-thio-β-D-xylopyranoside] the figure was 197 °C; with `N#Cc1cc(F)ccc1-c1cncc(O[C@@H]2SC[C@@H](O)[C@H](O)[C@H]2O)c1` [Example 148, 5-(2-cyano-4-fluorophenyl)-3-pyridinyl 5-thio-β-D-xylopyranoside], 198 to 200 °C; with `N#Cc1ccc(-c2ccncc2O[C@@H]2SC[C@@H](O)[C@H](O)[C@H]2O)cc1` [Example 28, 4-(4-cyanophenyl)-3-pyridinyl 5-thio-β-D-xylopyranoside], 238 °C.
Consider `O[C@@H]1[C@@H](O)[C@H](Oc2cncc(-c3ccc(F)cc3F)c2)SC[C@H]1O` [Example 85, 5-(2,4-difluorophenyl)-3-pyridinyl 5-thio-β-D-xylopyranoside], for which the melting point came out at 221 °C.
Regarding `CN(C)c1ccc(-c2cncc(O[C@@H]3SC[C@@H](O)[C@H](O)[C@H]3O)c2)cc1` [Example 50, 5-[4-(dimethylamino)phenyl]-3-pyridinyl 5-thio-β-D-xylopyranoside], the melting point was determined as 240 °C.
With `N#Cc1ccc(-c2cncc(O[C@@H]3SC[C@@H](O)[C@H](O)[C@H]3O)c2)cc1C#N` [Example 156, 5-(3,4-dicyanophenyl)-3-pyridinyl 5-thio-β-D-xylopyranoside] the figure was 192 °C.
